Laboratory results: patent US7511133B2, “Adenosine A3 receptor agonists” (King Pharmaceuticals Research and Development, Inc., priority 2003, dated 2009)
Read-outs that look alike come from different tables or passages of the source.

How the values were obtained:
[1] = biological target: T1, human A2A receptors (Homo sapiens, UniProt P29274); assay: [^3H] SCH58261 binding to human A2A receptors expressed in CHO cells (antagonist radioligand)
T1 construct: expressed in transfected cells; host or cells: CHO cells
T1 sequence (P29274 whole entry): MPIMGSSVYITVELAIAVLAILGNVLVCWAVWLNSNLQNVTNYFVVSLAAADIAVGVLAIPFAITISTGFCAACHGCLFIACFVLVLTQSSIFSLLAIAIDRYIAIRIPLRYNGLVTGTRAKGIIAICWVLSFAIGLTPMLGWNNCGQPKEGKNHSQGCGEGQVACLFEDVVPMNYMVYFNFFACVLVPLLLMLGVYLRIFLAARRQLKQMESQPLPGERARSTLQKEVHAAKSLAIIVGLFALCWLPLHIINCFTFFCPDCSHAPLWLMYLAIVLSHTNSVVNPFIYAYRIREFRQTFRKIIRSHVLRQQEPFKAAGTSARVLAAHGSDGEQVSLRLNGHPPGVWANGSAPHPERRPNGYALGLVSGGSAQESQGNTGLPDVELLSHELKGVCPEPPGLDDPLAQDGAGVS
Experimental: (§1) Binding assay methodology for the human data with antagonist radioligands. […] Arch. Pharmacol. 357: 1-9, (1998). The cells were grown adherently and maintained in Dulbecco's Modified Eagles Medium with nutrient mixture F12 (DMEM/F12) without nucleosides, containing 10% fetal calf serum, penicillin (100 U/ml), streptomycin (100 μg/ml), L-glutamine (2 mM) and Geneticin (G418, 0.2 mg/ml) at 37° C. in 5% CO2/95% air. Cells were split 2 or 3 times weekly at a ratio between 1:5 and 1:20. For membrane preparation the culture medium was removed and the cells were washed with PBS and scraped off T75 flasks in ice-cold hypotonic buffer (5 mM Tris HCl, 2 mM EDTA, pH 7.4). The cell suspension was homogenized with Polytron and the homogenate was spun for 10 min at 1,000×g. The supernatant was then centrifuged for 30 min at 100,000×g. The membrane pellet was resuspended in 50 mM Tris HCl buffer pH 7.4 (for A3 adenosine receptors: 50 mM Tris HCl, 10 mM MgCl2, 1 mM EDTA) and incubated with 3 UI/ml of Adenosine deaminase for 30 min at 37° C. Then the suspension was frozen at −80° C. HEK 293 cells transfected with the human recombinant A2B adenosine receptor were obtained from Receptor Biology, Inc. (Beltsville, Md., USA).
Binding of [^3H]-SCH 58261 to CHO cells transfected with the human recombinant A2A adenosine receptors (50 μg of protein/assay) was performed using 0.2 ml 50 mM Tris HCl buffer, 10 mM MgCl2 pH 7.4 and at least 6-8 different concentrations of antagonists studied for an incubation time of 30 min at 25° C.

[2] = biological target: T2, human A3 receptors (Homo sapiens, UniProt P0DMS8); assay: [^3H] MRE3008F20 binding to human A3 receptors expressed in CHO cells (antagonist radioligand)
T2 construct: expressed in transfected cells; host or cells: CHO cells
T2 sequence (P0DMS8 1-318): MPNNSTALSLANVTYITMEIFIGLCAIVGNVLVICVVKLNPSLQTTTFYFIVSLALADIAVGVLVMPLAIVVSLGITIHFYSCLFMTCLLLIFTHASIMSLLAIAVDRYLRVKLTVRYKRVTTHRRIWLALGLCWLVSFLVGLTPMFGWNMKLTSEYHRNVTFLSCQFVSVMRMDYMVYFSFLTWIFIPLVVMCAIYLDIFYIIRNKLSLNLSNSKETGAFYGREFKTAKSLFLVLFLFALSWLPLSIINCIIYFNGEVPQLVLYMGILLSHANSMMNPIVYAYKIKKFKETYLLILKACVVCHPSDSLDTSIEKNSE
Experimental: as §1
Binding of [^3H]-MRE 3008F20 to CHO cells transfected with the human recombinant A3 adenosine receptors was performed according to Varani et al., 2000. Competition experiments were carried out in duplicate in a final volume of […] in test tubes containing 1 nM [^3H]-MRE 3008F20, 50 mM Tris HCl buffer, 10 mM MgCl2, 1 mM EDTA pH 7.4 and 100 μl of diluted membranes (50 μg of protein/assay) and at least 8-10 different concentrations of examined antagonists. Incubation time was 120 min at 4° C., according to the results of previous time-course experiments.

[3] = biological target: T3, human hA2B receptors (Homo sapiens, UniProt P29275); assay: [^3H] DPCPX binding to human hA2B receptors expressed in HEK293 cells (antagonist radioligand)
T3 construct: host or cells: HEK 293 cells
T3 sequence (P29275 1-332): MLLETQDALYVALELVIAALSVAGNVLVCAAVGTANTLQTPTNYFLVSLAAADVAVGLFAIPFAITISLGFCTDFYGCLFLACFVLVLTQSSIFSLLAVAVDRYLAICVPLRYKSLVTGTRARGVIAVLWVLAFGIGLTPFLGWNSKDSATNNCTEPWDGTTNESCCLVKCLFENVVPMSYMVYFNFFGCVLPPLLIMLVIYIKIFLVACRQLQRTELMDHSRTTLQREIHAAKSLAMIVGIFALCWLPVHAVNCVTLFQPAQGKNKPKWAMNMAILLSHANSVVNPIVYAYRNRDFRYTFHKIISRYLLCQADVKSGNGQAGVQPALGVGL
Experimental: as §1
Competition experiments of [^3H]-DPCPX to HEK-293 cells transfected with the human recombinant A^2B adenosine receptor were performed for 60 min at 25° C. in 0.1 ml of 50 mM Tris HCl buffer, 10 mM MgCl2, 1 mM EDTA, 0.1 mM benzamidine pH 7.4, 2 IU/ml adenosine deaminase containing 34 nM [^3H]-DPCPX, diluted membranes (20 μg of protein/assay) and at least 6-8 different concentrations of selected compounds.

[4] = biological target: T4, human A2A adenosine receptors (Homo sapiens, UniProt P29274); assay: Displacement of [^3H]CGS21680 binding, human A2A adenosine receptors in CHO cells (agonist radioligand)
T4 construct: expressed in transfected cells; host or cells: CHO cells
T4 sequence (P29274 whole entry): as the sequence (P29274 whole entry) above

[5] = biological target: T5, human A1 receptors (Homo sapiens, UniProt P30542); assay: [^3H] DPCPX binding to human A1 receptors expressed in CHO cells (antagonist radioligand)
T5 construct: expressed in transfected cells; host or cells: CHO cells
T5 sequence (P30542 1-326): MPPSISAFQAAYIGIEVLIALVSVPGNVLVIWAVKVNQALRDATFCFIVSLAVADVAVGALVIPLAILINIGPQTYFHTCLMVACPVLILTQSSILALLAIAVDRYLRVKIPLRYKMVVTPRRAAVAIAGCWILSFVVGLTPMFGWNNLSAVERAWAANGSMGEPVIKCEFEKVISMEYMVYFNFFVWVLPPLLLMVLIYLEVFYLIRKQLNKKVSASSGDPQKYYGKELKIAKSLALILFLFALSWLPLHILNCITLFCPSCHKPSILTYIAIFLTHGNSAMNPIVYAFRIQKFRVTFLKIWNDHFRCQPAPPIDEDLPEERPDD
Experimental: as §1, with “Pharmacol. 357: 1-9, (1998).” left out
Displacement experiments were performed for 120 min at 25° C. in 0.2 ml of 50 mM Tris HCl buffer pH 7.4 containing 1 nM [3H]-DPCPX, diluted membranes (50 μg of protein/assay) and at least 6-8 different concentrations of antagonists studied. Non-specific binding was determined in the presence of 10 μM of CHA and this was always ≦10% of the total binding.

[6] = biological target: T6, human A3 adenosine receptors (Homo sapiens, UniProt P0DMS8)
T6 sequence (P0DMS8 1-318): T2 sequence (P0DMS8 1-318)

[7] = biological target: T7, human A1 adenosine receptors (Homo sapiens, UniProt P30542); assay: Displacement of [^3H]CHA binding, human A1 adenosine receptors in CHO cells (agonist radioligand)
T7 sequence (P30542 1-326): T5 sequence (P30542 1-326)

[8] = human A2A, CHO cells, antagonist radioligand, read-out: [^3H] SCH58261 binding to human A2A receptors expressed in CHO cells Ki
[9] = human A3, CHO cells, antagonist radioligand, read-out: [^3H] MRE3008F20 binding to human A3 receptors expressed in CHO cells Ki
[10] = human A2B, HEK293 cells, antagonist radioligand, read-out: [^3H] DPCPX binding to human hA2B receptors expressed in HEK293 cells Ki
[11] = human A2A, CHO cells, [^3H]CGS21680, read-out: Ki(A2A). Displacement of [^3H]CGS21680 binding to human A2A adenosine receptors exp. in CHO cells.
[12] = human A1, CHO cells, antagonist radioligand, read-out: [^3H] DPCPX binding to human A1 receptors expressed in CHO cells Ki

SMILES	Ki [1, 8] [nM]	Ki [2, 9] [nM]	Ki [3, 10] [nM]	Ki [4, 11] [nM]	Ki [5, 12] [nM]	Ki [6] [nM]	Ki [7] [nM]	melting point [°C]	Ki [1] [nM]	Ki [2] [nM]	Ki [3] [nM]	Ki [4] [nM]	Ki [5] [nM]
CCNC(=O)[C@H]1O[C@@H](n2cnc3c(NC(=O)Nc4ccc(S(=O)(=O)NC5CCCC5)cc4)ncnc32)[C@H](O)[C@@H]1O [Compound 95, 1-Deoxy-1-[6-[[[[4-[N-(cyclopentyl)aminosulfonyl]phenyl]-amino]carbonyl]amino]-9H-purin-9-yl]-N-ethyl-β-D-ribofuranuronamide]	> 1000	140	> 1000	> 1000	> 1000	24	415	–	–	–	–	–	–
CCNC(=O)[C@H]1O[C@@H](n2cnc3c(NC(=O)Nc4ccc(S(=O)(=O)N5CCCCC5)cc4)ncnc32)[C@H](O)[C@@H]1O [Compound 83, 1-Deoxy-1-[6-[[[[4-[(piperidin-1-yl)sulfonyl]phenyl]amino]carbonyl]amino]-9H-purin-9-yl]-N-ethyl-β-D-ribofuranuronamide]	> 1000	–	> 1000	> 1000	–	–	–	176 to 178	–	–	–	–	–
CCNC(=O)[C@H]1O[C@@H](n2cnc3c(NC(=O)Nc4ccc(S(=O)(=O)NC5CCCCC5)cc4)ncnc32)[C@H](O)[C@@H]1O [Compound 94, 1-Deoxy-1-[6-[[[[4-[N-(cyclohexyl)aminosulfonyl]phenyl]-amino]carbonyl]amino]-9H-purin-9-yl]-N-ethyl-β-D-ribofuranuronamide]	> 1000	–	> 1000	> 1000	> 1000	–	350	179 to 183	–	–	–	–	–
CCNC(=O)[C@H]1O[C@@H](n2cnc3c(NC(=O)Nc4ccc(S(=O)(=O)N5CCCC5)cc4)ncnc32)[C@H](O)[C@@H]1O [Compound 90, 1-Deoxy-1-[6-[[[[4-[(pyrrolidin-1-yl)sulfonyl]phenyl]amino]carbonyl]amino]-9H-purin-9-yl]-N-ethyl-β-D-ribofuranuronamide]	> 1000	100	> 1000	> 1000	–	22	–	204 to 205	–	–	–	–	–
CCNC(=O)[C@H]1O[C@@H](n2cnc3c(NC(=O)Nc4ccc(S(=O)(=O)N(CCCl)CCCl)cc4)ncnc32)[C@H](O)[C@@H]1O [Compound 91, 1-Deoxy-1-[6-[[[[4-[N,N-bis(2-chloroethyl)aminosulfonyl]phenyl]-amino]carbonyl]amino]-9H-purin-9-yl]-N-ethyl-β-D-ribofuranuronamide]	–	–	–	–	–	23	730	–	> 1000	120	> 1000	> 1000	> 1000

The next lines start with results.

Ki [1, 8] [nM]	Ki [2, 9] [nM]	Ki [3, 10] [nM]	Ki [4, 11] [nM]	Ki [5, 12] [nM]	Ki [6] [nM]	Ki [7] [nM]	melting point [°C]	SMILES	Ki [1] [nM]	Ki [2] [nM]	Ki [3] [nM]	Ki [4] [nM]	Ki [5] [nM]
> 1000	–	> 1000	> 1000	> 1000	–	280	–	CCNC(=O)[C@H]1O[C@@H](n2cnc3c(NC(=O)Nc4ccc(S(=O)(=O)Nc5ccc(OC)cc5)cc4)ncnc32)[C@H](O)[C@@H]1O [Compound 88, 1-Deoxy-1-[6-[[[[4-[N-(4-methoxyphenyl)aminosulfonyl]phenyl]-amino]carbo-nyl]amino]-9H-purin-9-yl]-N-ethyl-β-D-ribofuranuronamide]	–	–	–	–	–
> 1000	50	> 1000	> 1000	–	10	–	181 to 185	C=CCN(C)S(=O)(=O)c1ccc(NC(=O)Nc2ncnc3c2ncn3[C@@H]2O[C@H](C(=O)NCC)[C@@H](O)[C@H]2O)cc1 [Compound 96, 1-Deoxy-1-[6-[[[[4-[N-(allyl)-N-(methyl)amino-sulfonyl]phenyl]amino]carbonyl]amino]-9H-purin-9-yl]-N-ethyl-β-D-ribofuranuronamide]	–	–	–	–	–
> 1000	–	> 1000	> 1000	> 1000	–	300	–	CCNC(=O)[C@H]1O[C@@H](n2cnc3c(NC(=O)Nc4ccc(S(=O)(=O)NCc5ccccc5)cc4)ncnc32)[C@H](O)[C@@H]1O [Compound 86, 1-Deoxy-1-[6-[[[[4-[N-(benzyl)aminosulfonyl]phenyl]amino]-carbonyl]amino]-9H-purin-9-yl]-N-ethyl-β-D-ribofuranuronamide]	–	–	–	–	–
